Measurements from patent publication EP0497921B1, “METHOD FOR INHIBITING ENZYMATIC SYNTHESIS OF NUCLEIC ACIDS USING ISOPSORALENS” (ISAACS, Stephen T., priority 1989, dated 1991).

What was measured:
HIV 115-mer = experiment: Post-amplification sterilization: isopsoralen plus irradiation, reamplification of carryover; format: biochemical; settings: for sterilization sensitivity (molecules of carryover sterilized): 115-mer PCR product; for amplification of carryover, not light-treated: no irradiation
Text: For the purposes of this determination, the steps of the following experiment include (see Figure 40): a) preparing template, b) providing template, c) providing PCR reagents, d) providing polymerase, e) mixing PCR reagents, template, and polymerase to initiate PCR, f) cycling to provide PCR product, g) carrying over of PCR product into new tubes, h) providing isopsoralen, i) adding isopsoralen to the carryover, j) irradiating, k) addition of new PCR reagents, and l) subsequent PCR. Steps a), b) , c) , d), e), and f). PCR product was provided as described earlier. Step g) carrying over of PCR product. Aliquots of PCR product were added into new reaction tubes at 10^6 copies per tube. Step h) Providing Isopsoralen. AMDMIP was synthesized as described and diluted. Step i) Addition of Isopsoralen. AMDMIP (100 µg/ml, approximately 10^-4 M) was added reaction vessels containing carryover. Step j) Irradiation. Irradiation was performed on the PTI device to avoid photoproduct. Three of the new reaction tubes were irradiated while the others were left unirradiated as controls. Irradiation was for 15 minutes at RT as above. Step k) PCR Reagents and Taq Polymerase Were Added to Appropriate Concentrations. The final volume was increased two fold such that AMDMIP photoproducts were at 50 µg/ml. Step l) Subsequent PCR. Amplification was performed in closed reaction vessels using primer pair SK-38/39 for 20, 25 or 30 cycles, using the temperature profile for cycling described above in the presence of α-^32P-dCTP.
For the purposes of this determination, the steps of the following experiment include (see Figure 42): a) preparing template, b) providing template, c) providing isopsoralen, d) providing PCR reagents, e) providing polymerase, f) mixing isopsoralen, PCR reagents, template, and polymerase to initiate PCR, g) cycling to provide PCR product, h) irradiating, i) carrying over of PCR product into new tubes at specific copy numbers, and j) amplifying in a subsequent PCR. Step a): Template preparation. HIV 115-mer was used as template. Step b) Providing Template. For the reaction, template (equivalent to approximately 10^7 copies) in buffer was provided for the reaction vessel. Step c) Providing Isopsoralen. AMDMIP (400 µg/ml) was provided as the isopsoralen. This is a higher concentration of AMDMIP than used in the previous example. Steps d), e), f) and g). PCR reagents and polymerase were provided, mixed and cycled as described above. This time, however, isopsoralen is part of the pre-amplification mixture. Step h) Irradiation. Irradiation was performed on the CE-III device for 15 minutes at 25°C. Step i) Carrying over of PCR product. Aliquots of PCR product were added into six new reaction tubes - two tubes for each dilution. Dilutions to yield 10^7, 10^5 and 10^3 copies were made. (Note that the dilutions were made from a concentration of approximately […]; thus, the dilutions produce a concentration of photoproduct that is far too low to consider photoproduct sterilization.) Step j) Subsequent PCR. New PCR reagents and polymerase were provided and mixed. Amplification was performed in closed reaction vessels using primer pair SK-38/39 for 30 cycles, using the temperature profile for cycling described above in the presence of α-^32P-dCTP.
The two PCR targets used in these experiments were a 115-mer (SK-38/SK-39 HIV system) and a 500-mer. The 500-mer target is obtained from a PCR amplification of a lambda plasmid with primers PCR 01/02. This system is provided by Cetus/Perkin Elmer as a control in their commercial kits of PCR reagents (Catalogue No. N801-0055). For both of these systems equivalent copy numbers of each target were prepared in the following manner: An initial 30 cycle PCR reaction was carried out for each system with the appropriate primers and targets. Aliquots (approximately 10^5-10^6 target copies) of each of these reactions were transferred to a second set of PCR reactions. […]

500-mer = experiment: as above; format: biochemical, lambda; settings: CE-III 15 minutes, 500-mer PCR product, 30 cycles
Method: The two PCR targets used in these experiments were a 115-mer (SK-38/SK-39 HIV system) and a 500-mer. The 500-mer target is obtained from a PCR amplification of a lambda plasmid with primers PCR 01/02. This system is provided by Cetus/Perkin Elmer as a control in their commercial kits of PCR reagents (Catalogue No. N801-0055). For both of these systems equivalent copy numbers of each target were prepared in the following manner: An initial 30 cycle PCR reaction was carried out for each system with the appropriate primers and targets. Aliquots (approximately 10^5-10^6 target copies) of each of these reactions were transferred to a second set of PCR reactions. These second sets of PCR amplifications were carried out in the presence of α-^32P-dCTP, again for 30 cycles. Aliquots of these reactions were removed and counted by liquid scintillation counting. With these numbers, the specific activity of the α-32P-dCTP, and the sequence of each of the PCR product oligonucleotides (115-mer and 500-mer), the concentrations of each of the two PCR product oligonucleotides in the second set of PCR reaction tubes was determined. Both the 115-mer and the 500-mer concentrations were then adjusted to exactly 1 x 10^-8 M by the addition of additional Taq buffer. These stocks of equivalent copy number of PCR products were then used for further investigation. Each of the stock solutions then was subdivided into four reaction tubes. The reaction tubes were adjusted to contain the following: Tube 1, 100 µg/ml AMIP; Tube 2, 400 µg/ml AMIP; Tube 3, 100 µg/ml AMDMIP; and Tube 4, 400 µg/ml AMDMIP. Each of these samples were again split into two portions, one part being irradiated for 15 minutes at room temperature with the CE-III device and the other part kept in the dark. Serial dilutions of the irradiated and the unirradiated targets were then carried out on these samples for 30 cycles in the presence of α-32P-CTP. Aliquots of these samples were analyzed on denaturing polyacrylamide gels. The PCR product bands were visualized by autoradiography, cut, and counted in a liquid scintillation counter.

human placental DNA = experiment: PCR amplification with unirradiated AMDMIP and DMSO co-solvent; format: biochemical; settings: for CPM of product bands: AMDMIP 200 µg/ml unirradiated
Method: In this example, the effect of DMSO on PCR amplification in the presence of high concentrations of sterilizing compound (AMDMIP) was investigated. Samples were prepared for PCR which contained 1 µg of human placental DNA either with or without (unirradiated) AMDMIP (200 µg/ml). The samples were amplified 30 cycles under standard PCR conditions in the presence of 0%, 1%, 5% or 10% DMSO. The reaction mix contained α-^32P-dCTP. Following amplification, the samples were analyzed by PAGE (data not shown).

[1] = 100 µg/ml, CE-III 15 minutes, 30 cycles
[2] = 400 µg/ml, CE-III 15 minutes, 30 cycles

Substance	sterilization sensitivity (molecules of carryover sterilized) (HIV 115-mer; [1])	sterilization sensitivity (molecules of carryover sterilized) (HIV 115-mer; [2])	sterilization sensitivity (molecules of carryover sterilized) (500-mer; 100 µg/ml)	sterilization sensitivity (molecules of carryover sterilized) (500-mer; 400 µg/ml)	sterilization of 115-mer PCR product compared with AMIP (HIV 115-mer; [1])	sterilization of carryover (HIV 115-mer; AMDMIP 100 µg/ml added after amplification, PTI 15 minutes, 10^6 copies, thirty cycles)	sterilization of carryover (HIV 115-mer; AMDMIP 100 µg/ml added after amplification, PTI 15 minutes, 10^6 copies, twenty cycles)	sterilization of carryover (HIV 115-mer; AMDMIP 100 µg/ml added after amplification, PTI 15 minutes, 10^6 copies, twenty-five cycles, reduced relative to controls)	amplification of carryover, not light-treated (HIV 115-mer; AMDMIP 100 µg/ml, 20, 25, 30 cycles)	sterilization of carryover (HIV 115-mer; AMDMIP 400 µg/ml present during amplification, CE-III 15 minutes at 25°C, 10^7, 10^5, 10^3 copies, 30 cycles)	amplification of carryover, not light-treated (HIV 115-mer; AMDMIP 400 µg/ml present during first amplification, 30 cycles)	target molecules left capable of being replicated by PCR (HIV 115-mer; inferred from 20 cycles with 100 CPM threshold and Table 6)	target molecules that retained replicating capabilities (HIV 115-mer; inferred from 25 cycles and Table 6)	amplification with unirradiated AMDMIP (human placental DNA; 200 µg/ml, no DMSO, 30 cycles)	CPM of product bands (human placental DNA; 0% DMSO)	CPM of product bands (human placental DNA; 1% DMSO)	CPM of product bands (human placental DNA; 5% DMSO)	CPM of product bands (human placental DNA; 10% DMSO)
5-Aminomethylisopsoralen [AMIP]	about 10,000 molecules of carryover	about 10^6 carryover molecules	more effectively sterilized than the 115-mer PCR product	≥ 6 x 10^9 molecules of carryover														
4'-Aminomethyl-4,5'-dimethylisopsoralen [AMDMIP]		≥ 6 x 10^9 carryover molecules	≥ 6 x 10^9 carryover molecules	no signal in the irradiated dilution series	better sterilization agent	no significant sterilization is observed	sterilization appears to be complete	PCR product is visible	show amplification	complete, post-amplification sterilization	show amplification	less than 10^4 target molecules	at least 10^3 target molecules	virtually no detectable amplification product	2500 CPM	2800 CPM	86,000 CPM	102,000 CPM
